Data on 63 molecules can be found in a melting point compilation (Tetko et al.; mined from patent text by program, amines drawn as free bases though some values may be those of a salt).

The molecule `CCCCn1c(Nc2cc(Cl)cc(C(F)(F)F)c2)nc(C(F)(F)F)cc1=O` yielded a melting point of 157 to 158 °C.

`CN(C)CC(O)C1=CC2(CCCC2)c2ccccc21` (stereo not drawn) came in with a melting point of 133 to 134 °C. The molecule `CCOc1ccc(-c2ccc(C3COC(c4c(F)cccc4F)=N3)cc2)cn1` (stereo not drawn) came in with a melting point of 119 °C. The figure for `CC(=O)Nc1ccc(/C=C/C(=O)O)cn1` is 291 to 292 °C.

`CCN1C(=O)C(C(N)=O)(c2ccc(Cl)c(Cl)c2)OS1=O` (stereo not drawn) came in with a melting point of 127 to 128 °C. The figure for `O=C(O)COc1ccc2cc(-c3cnc(-c4cn(Cc5ccccc5)c5ccccc45)o3)ccc2c1` is 238 to 242 °C; for `N#Cc1cnn(-c2ccc(C(F)(F)F)cc2[N+](=O)[O-])c1N` it is 234 to 236 °C; for `Cc1on(C(=O)N(Cc2ccccc2)c2ccccc2)c(=O)c1Cl` it is 118 to 119 °C.

The molecule `O=[N+]([O-])c1cc(Br)ccc1NCC(F)(F)F` gave a melting point of 118 to 120 °C. Under `O=c1c(-c2nnn[nH]2)coc2ccccc12` stands 284 to 285 °C. Under `Cc1c(Cl)cc(C(C)C)c2oc(SCCN3CCN(CC(=O)Nc4c(C(C)C)cccc4C(C)C)CC3)nc12` stands 162 to 163 °C; under `O=S(=O)(c1c(F)c(F)c(F)c(F)c1F)N1CCCC(c2ccc(F)cc2)=N1`, 140 to 141 °C. Molecule `CCC(=O)Oc1ccc(C(=O)c2ccc(Sc3ccccc3)cc2)c(O)c1` showed a melting point of 88 to 90 °C.

For `COc1cccc(-c2ccc3ccc(OC)cc3c2)c1`, the melting point fell in the range of 58 to 59 °C. The figure for `COC(=O)c1ccc2c(c1)c1cc(-c3ccc(CN4CCOCC4)cc3)c(=O)n(C)c1n2C` is 175 °C; for `COC(=O)c1scc(C)c1NC(=O)CC12CC3CC(CC(C3)C1)C2` it is 124 °C. Under `CCCc1nc2c(N)nc3ccc(-c4ccccc4CO)cc3c2s1` stands 194 to 196 °C; under `Cc1ccc(-c2ccc(C)cc2[N+](=O)[O-])c([N+](=O)[O-])c1`, 138 to 141 °C; under `CC(C#N)(COc1cc(C#N)ccc1C(F)(F)F)NC(=O)c1ccc(OC(F)(F)F)cc1` (stereo not drawn), 75 to 78 °C. `O=C(c1nc2ccccc2n1Cc1ccc(F)cc1)C1CCN(CCC2(Cc3ccc(C(F)(F)F)cc3)CCN(Cc3ccccc3)C2=O)CC1` (stereo not drawn) had a melting point of 104 to 106 °C. `O=c1c2cc(Oc3ccc(Cl)cc3)ccc2cnn1Cc1cccnc1` had a melting point of 150 to 152 °C.

For the molecule `COc1cc2c(cc1F)CC(C)C2=O` (stereo not drawn), the melting point is 76 to 78 °C. Regarding `CCCCCCCCCCc1ccc2ccc(C)c(O)c2c1`, the melting point lay within 65 to 67 °C. The molecule `CCCCCC(CC(=O)Nc1cc(CCC(=O)NC)ccc1C(C)(C)C)c1c(OC)cccc1OC` (stereo not drawn) showed a melting point of 111 to 112 °C. With `NC(=O)c1nc(-c2cncc(Cl)c2)nc2c1[nH]c(=O)n2-c1ccccc1C(F)(F)F`, the melting point is 230 to 232 °C. `Oc1ccc(-c2cc3cc(Br)cc(Br)c3o2)cc1` returned a melting point of 203 to 205 °C. Under `NC(=O)c1cnc2ccc(Cl)cc2c1Cl` stands 209 °C; under `CCC(SN(C(=O)NC(=O)c1c(F)cccc1F)c1ccc(Oc2ccc(C(F)(F)F)cc2Cl)cc1F)C(=O)NC` (stereo not drawn), 136 to 138 °C; under `COc1cccc(N)c1C#N`, 143 to 146 °C. Under `COc1cc2c(cc1OC)N(c1ccc([N+](=O)[O-])cc1[N+](=O)[O-])CC2` stands 219 °C; under `CC[C@H](C)[C@H](NC(=O)O[C@@H](CC(C)C)C(=O)O)C(N)=O`, 170 to 175 °C. The figure for `CCOc1ccc([N+](=O)[O-])c(C)c1` is 41 to 43 °C; for `CC(C)OC(=O)c1cc(-n2c(=O)[nH]c3c(c2=O)SCC3)c(F)cc1Cl` it is 252 to 254 °C; for `C=CCOc1ccccc1-c1ncc(C(=O)OCC)c(=O)[nH]1` it is 118 to 120 °C. Turning to `COC1=C(OC)C(OC)C(C=CC(=O)O)(OC)C=C1C` (stereo not drawn), the melting point fell in the range of 117 to 118 °C. Under `Cc1cc(O)cc(N(C)C)c1` stands 67 to 68 °C; under `CCc1ccc2c(CC(=O)O)c(C(=O)c3cc(C)ccn3)[nH]c2c1`, 204 to 207 °C; under `Nc1ccc(N2CCOCC2)c(C(F)(F)F)c1`, 149 to 151 °C. `CCCCn1ccc(-c2ccc(Oc3ccnc(C)c3)cc2F)c(C#N)c1=O` gave a melting point of 127 °C. Regarding `O=[N+]([O-])c1ccc(OS(=O)(=O)c2ccccc2I)cc1`, the melting point lay in the range of 131 to 133 °C. The figure for `CC(C)(C)c1cc(CO)c(O)c(CO)c1` is 68 to 73 °C; for `S=C(NCCCN1CCCC1)NCCN(Cc1ccc(Cl)c(Cl)c1)c1ccc(Br)cn1` it is 123 to 125 °C. Under `Cc1cc(=O)oc2nn(Cc3cccc(Cl)c3)c(C)c12` stands 148 to 149 °C; under `O=C1CCN(Cc2ccc(O)cc2)CC1C1c2ccccc2C=Cc2ccccc21` (stereo not drawn), 156 to 157 °C. The figure for `Cc1oc(C(N)=O)c(C)c1-c1nc2ccc(C(=O)c3ccccc3)cc2[nH]1` is 143 to 146 °C. As to `CCOC(=O)C(NC(=O)NN1CC(=O)NC1=O)c1ccccc1` (stereo not drawn), the melting point lay within 148 to 151 °C.

On to `Oc1cccc2nscc12`, for which the melting point was in the range of 184 to 186 °C. Under `CC(O)(CCBr)c1ccc(-c2ccc(F)cc2)cc1` (stereo not drawn) stands 72 to 74 °C; under `O=C(O)CCC1(c2ccc(Cl)c(Cl)c2)CCC(=O)NC1=O` (single isomer, unassigned; (+)), 201 °C; under `COC(=O)c1cn2c(n1)COc1ccc(Cl)cc1-2`, 239 to 240 °C.

`COc1ccc2cc(C=C(C)C(=O)NCCN(O)C(N)=O)ccc2c1` displayed a melting point of 174 to 176 °C. As to `CCCN(CCC)C(=O)N1CCc2ccc(S(=O)(=O)NC(=O)NC3CCCCC3)cc2CC1`, the melting point is 179 to 180 °C. The figure for `CCN1CCc2cc(OC)c(OC)cc2C12CCC(C=O)CC2C1c2cc(OC)c(OC)cc2CCN1C` (stereo not drawn) is 137 to 139 °C. Under `CCCCc1c(OC)cc(C)c(C=CC(C)=CC=CC(C)=CC(=O)OCC)c1C` stands 147 to 148 °C. Turning to `Cc1ccccc1C(=O)Nc1ccc(C(=O)Cl)cc1`, the melting point is 135 to 141 °C.

For the molecule `C=CCOC(=O)c1ccc(NC(C)=O)cc1O`, the melting point was 156 to 158 °C. `CCNc1nc(-c2ccccc2)ncc1[N+](=O)[O-]` gave a melting point of 136 to 137 °C.

Turning to `O=C1CC2Cc3c(Cl)cccc3C2N1` (stereo not drawn), the melting point fell in the range of 186 to 187 °C. For the molecule `CCn1nc(-c2ccc(F)cc2)c(C(C)=O)c(Nc2cccc3cccnc23)c1=O`, the melting point amounted to 154 °C. The molecule `CCCCCCCCCCCCn1nnc(CN(Cc2ccccc2)C(=O)Nc2c(OC)cc(OC)cc2OC)n1` registered a melting point of 57 to 59 °C.

As for `CCCCOC(=O)c1ccc2c(C(=O)c3ccc(OCCN4CCCCC4)cc3)c(-c3ccc(O)cc3)sc2c1`, the melting point fell in the range of 87 to 90 °C.

As for `COc1cc(OC)c(-c2cn[nH]c2)cc1C=CC(=O)c1ccc(C(=O)O)cc1`, the melting point was > 250 °C. The figure for `COc1ccc(CN(C)C(=O)c2c(-c3ccncc3)c(-c3ccc(F)cc3)nn2C)cc1` is 150 to 153 °C.

What is called melting point is the temperature, or range, at which the solid turns liquid.
